± gives the expanded uncertainty stated by the source.
Test: molar heat capacity at constant pressure
Details: 101.33 kPa

O=P([O-])([O-])[O-].[Fe+2].[Li+] [iron(II) lithium phosphate]
Details | molar heat capacity at constant pressure [J/K/mol]
2.03 K, Crystal 2, relaxation calorimetry | 0.0162 ± 0.0013
2.2 K, Crystal 2, relaxation calorimetry | 0.0187 ± 0.0015
2.38 K, Crystal 2, relaxation calorimetry | 0.0224 ± 0.0018
2.58 K, Crystal 2, relaxation calorimetry | 0.0243 ± 0.0019
2.8 K, Crystal 2, relaxation calorimetry | 0.0271 ± 0.0021
3.04 K, Crystal 2, relaxation calorimetry | 0.0309 ± 0.0024
3.29 K, Crystal 2, relaxation calorimetry | 0.0325 ± 0.0026
3.56 K, Crystal 2, relaxation calorimetry | 0.0401 ± 0.0032
3.86 K, Crystal 2, relaxation calorimetry | 0.048 ± 0.0038
4.19 K, Crystal 2, relaxation calorimetry | 0.0562 ± 0.0044
4.54 K, Crystal 2, relaxation calorimetry | 0.059 ± 0.0046
4.92 K, Crystal 2, relaxation calorimetry | 0.0709 ± 0.0056
5 K, Crystal 2, relaxation calorimetry | 0.0481 ± 0.004
5.33 K, Crystal 2, relaxation calorimetry | 0.0742 ± 0.0058
5.78 K, Crystal 2, relaxation calorimetry | 0.0903 ± 0.0071
6.26 K, Crystal 2, relaxation calorimetry | 0.101 ± 0.008
6.78 K, Crystal 2, relaxation calorimetry | 0.12 ± 0.009
7.35 K, Crystal 2, relaxation calorimetry | 0.138 ± 0.011
7.97 K, Crystal 2, relaxation calorimetry | 0.173 ± 0.014
8.64 K, Crystal 2, relaxation calorimetry | 0.22 ± 0.017
9.36 K, Crystal 2, relaxation calorimetry | 0.276 ± 0.022
10 K, Crystal 2, relaxation calorimetry | 0.3419 ± 0.027
10.14 K, Crystal 2, relaxation calorimetry | 0.364 ± 0.036
10.23 K, Crystal 2, relaxation calorimetry | 0.46 ± 0.042
10.75 K, Crystal 2, relaxation calorimetry | 0.535 ± 0.042
11.26 K, Crystal 2, relaxation calorimetry | 0.615 ± 0.048
11.77 K, Crystal 2, relaxation calorimetry | 0.706 ± 0.055
12.28 K, Crystal 2, relaxation calorimetry | 0.808 ± 0.063
12.8 K, Crystal 2, relaxation calorimetry | 0.917 ± 0.072
13.31 K, Crystal 2, relaxation calorimetry | 1.038 ± 0.082
13.83 K, Crystal 2, relaxation calorimetry | 1.171 ± 0.092
14.34 K, Crystal 2, relaxation calorimetry | 1.314 ± 0.1
14.85 K, Crystal 2, relaxation calorimetry | 1.467 ± 0.12
15 K, Crystal 2, relaxation calorimetry | 1.514 ± 0.12
15.36 K, Crystal 2, relaxation calorimetry | 1.631 ± 0.13
15.88 K, Crystal 2, relaxation calorimetry | 1.797 ± 0.14
16.39 K, Crystal 2, relaxation calorimetry | 1.977 ± 0.15
16.9 K, Crystal 2, relaxation calorimetry | 2.169 ± 0.17
17.41 K, Crystal 2, relaxation calorimetry | 2.363 ± 0.18
17.93 K, Crystal 2, relaxation calorimetry | 2.571 ± 0.2
18.44 K, Crystal 2, relaxation calorimetry | 2.79 ± 0.22
18.95 K, Crystal 2, relaxation calorimetry | 3.015 ± 0.24
19.47 K, Crystal 2, relaxation calorimetry | 3.249 ± 0.26
19.98 K, Crystal 2, relaxation calorimetry | 3.484 ± 0.27
20 K, Crystal 2, relaxation calorimetry | 3.498 ± 0.27
20.49 K, Crystal 2, relaxation calorimetry | 3.75 ± 0.15
21.01 K, Crystal 2, relaxation calorimetry | 3.99 ± 0.16
21.51 K, Crystal 2, relaxation calorimetry | 4.26 ± 0.17
22.03 K, Crystal 2, relaxation calorimetry | 4.55 ± 0.19
22.54 K, Crystal 2, relaxation calorimetry | 4.83 ± 0.2
23.05 K, Crystal 2, relaxation calorimetry | 5.13 ± 0.21
23.56 K, Crystal 2, relaxation calorimetry | 5.43 ± 0.22
24.08 K, Crystal 2, relaxation calorimetry | 5.74 ± 0.23
24.59 K, Crystal 2, relaxation calorimetry | 6.06 ± 0.25
25 K, Crystal 2, relaxation calorimetry | 6.334 ± 0.26
25.1 K, Crystal 2, relaxation calorimetry | 6.4 ± 0.26
25.61 K, Crystal 2, relaxation calorimetry | 6.75 ± 0.28
26.13 K, Crystal 2, relaxation calorimetry | 7.09 ± 0.29
26.64 K, Crystal 2, relaxation calorimetry | 7.45 ± 0.3
27.15 K, Crystal 2, relaxation calorimetry | 7.84 ± 0.32
27.67 K, Crystal 2, relaxation calorimetry | 8.22 ± 0.34
28.18 K, Crystal 2, relaxation calorimetry | 8.63 ± 0.35
28.69 K, Crystal 2, relaxation calorimetry | 9.04 ± 0.37
29.2 K, Crystal 2, relaxation calorimetry | 9.47 ± 0.39
29.71 K, Crystal 2, relaxation calorimetry | 9.92 ± 0.4
30 K, Crystal 2, relaxation calorimetry | 10.17 ± 0.41
30.22 K, Crystal 2, relaxation calorimetry | 10.36 ± 0.42
30.73 K, Crystal 2, relaxation calorimetry | 10.82 ± 0.44
31.24 K, Crystal 2, relaxation calorimetry | 11.31 ± 0.46
31.76 K, Crystal 2, relaxation calorimetry | 11.78 ± 0.48
32.27 K, Crystal 2, relaxation calorimetry | 12.28 ± 0.5
32.78 K, Crystal 2, relaxation calorimetry | 12.78 ± 0.52
33.29 K, Crystal 2, relaxation calorimetry | 13.28 ± 0.54
33.8 K, Crystal 2, relaxation calorimetry | 13.81 ± 0.56
34.31 K, Crystal 2, relaxation calorimetry | 14.35 ± 0.58
34.82 K, Crystal 2, relaxation calorimetry | 14.9 ± 0.61
35 K, Crystal 2, relaxation calorimetry | 15.09 ± 0.61
35.34 K, Crystal 2, relaxation calorimetry | 15.46 ± 0.63
35.85 K, Crystal 2, relaxation calorimetry | 16.03 ± 0.65
37.02 K, Crystal 2, relaxation calorimetry | 17.18 ± 0.7
38.89 K, Crystal 2, relaxation calorimetry | 19.19 ± 0.78
40 K, Crystal 2, relaxation calorimetry | 20.69 ± 0.84
40.75 K, Crystal 2, relaxation calorimetry | 21.8 ± 0.89
42 K, Crystal 2, relaxation calorimetry | 23.73 ± 0.96
42.62 K, Crystal 2, relaxation calorimetry | 24.74 ± 1
44.48 K, Crystal 2, relaxation calorimetry | 28.1 ± 1.1
45 K, Crystal 2, relaxation calorimetry | 29.13 ± 1.2
45.5 K, Crystal 2, relaxation calorimetry | 30.18 ± 1.2
45.72 K, Crystal 2, relaxation calorimetry | 30.67 ± 1.2
45.92 K, Crystal 2, relaxation calorimetry | 31.15 ± 1.3
46 K, Crystal 2, relaxation calorimetry | 31.31 ± 1.3
46.14 K, Crystal 2, relaxation calorimetry | 31.65 ± 1.3
46.34 K, Crystal 2, relaxation calorimetry | 32.17 ± 1.3
46.55 K, Crystal 2, relaxation calorimetry | 32.68 ± 1.3
46.75 K, Crystal 2, relaxation calorimetry | 33.24 ± 1.4
46.97 K, Crystal 2, relaxation calorimetry | 33.77 ± 1.4
47 K, Crystal 2, relaxation calorimetry | 33.89 ± 1.4
47.16 K, Crystal 2, relaxation calorimetry | 34.33 ± 1.4
47.38 K, Crystal 2, relaxation calorimetry | 34.9 ± 1.4
47.58 K, Crystal 2, relaxation calorimetry | 35.53 ± 1.4
47.8 K, Crystal 2, relaxation calorimetry | 36.14 ± 1.5
47.99 K, Crystal 2, relaxation calorimetry | 36.79 ± 1.5
48 K, Crystal 2, relaxation calorimetry | 36.77 ± 1.5
48.2 K, Crystal 2, relaxation calorimetry | 37.43 ± 1.5
48.4 K, Crystal 2, relaxation calorimetry | 38.11 ± 1.6
48.62 K, Crystal 2, relaxation calorimetry | 38.7 ± 1.6
48.82 K, Crystal 2, relaxation calorimetry | 39.3 ± 1.6
49 K, Crystal 2, relaxation calorimetry | 39.73 ± 1.6
49.03 K, Crystal 2, relaxation calorimetry | 39.72 ± 1.6
49.22 K, Crystal 2, relaxation calorimetry | 40.03 ± 1.6
49.24 K, Crystal 1, combination of DSC and relaxation calorimetry | 39.99 ± 1.6
49.24 K, Crystal 2, relaxation calorimetry | 39.99 ± 1.6
49.44 K, Crystal 1, relaxation calorimetry | 39.73 ± 1.7
49.64 K, Crystal 1, relaxation calorimetry | 38.83 ± 1.6
49.85 K, Crystal 1, relaxation calorimetry | 36.64 ± 1.6
50 K, Crystal 1, combination of DSC and relaxation calorimetry | 34.52 ± 1.4
50.05 K, Crystal 1, relaxation calorimetry | 33.84 ± 1.4
50.27 K, Crystal 1, relaxation calorimetry | 30.69 ± 1.3
50.47 K, Crystal 1, relaxation calorimetry | 28.52 ± 1.2
50.69 K, Crystal 1, relaxation calorimetry | 26.66 ± 1.1
50.89 K, Crystal 1, relaxation calorimetry | 25.59 ± 1.1
51 K, Crystal 1, combination of DSC and relaxation calorimetry | 25.15 ± 1
51.08 K, Crystal 1, relaxation calorimetry | 24.86 ± 1
51.29 K, Crystal 1, relaxation calorimetry | 24.3 ± 1
51.5 K, Crystal 1, relaxation calorimetry | 23.89 ± 0.97
51.7 K, Crystal 1, relaxation calorimetry | 23.58 ± 0.96
51.9 K, Crystal 1, relaxation calorimetry | 23.36 ± 0.95
52 K, Crystal 1, combination of DSC and relaxation calorimetry | 23.25 ± 0.95
52.12 K, Crystal 1, relaxation calorimetry | 23.13 ± 0.94
52.32 K, Crystal 1, relaxation calorimetry | 22.99 ± 0.93
52.53 K, Crystal 1, relaxation calorimetry | 22.88 ± 0.93
52.72 K, Crystal 1, relaxation calorimetry | 22.83 ± 0.93
52.94 K, Crystal 1, relaxation calorimetry | 22.74 ± 0.92
53 K, Crystal 1, combination of DSC and relaxation calorimetry | 22.72 ± 0.92
53.14 K, Crystal 1, relaxation calorimetry | 22.69 ± 0.92
53.35 K, Crystal 1, relaxation calorimetry | 22.66 ± 0.92
53.55 K, Crystal 1, relaxation calorimetry | 22.66 ± 0.92
53.77 K, Crystal 1, relaxation calorimetry | 22.66 ± 0.92
53.96 K, Crystal 1, relaxation calorimetry | 22.66 ± 0.92
54 K, Crystal 1, combination of DSC and relaxation calorimetry | 22.66 ± 0.92
54.18 K, Crystal 1, relaxation calorimetry | 22.69 ± 0.92
54.38 K, Crystal 1, relaxation calorimetry | 22.68 ± 0.92
54.59 K, Crystal 1, relaxation calorimetry | 22.73 ± 0.92
54.79 K, Crystal 1, relaxation calorimetry | 22.77 ± 0.92
55 K, Crystal 1, combination of DSC and relaxation calorimetry | 22.82 ± 0.93
55 K, Crystal 1, relaxation calorimetry | 22.82 ± 0.93
55.2 K, Crystal 1, relaxation calorimetry | 22.85 ± 0.93
55.41 K, Crystal 1, relaxation calorimetry | 22.91 ± 0.93
55.62 K, Crystal 1, relaxation calorimetry | 22.95 ± 0.93
56.61 K, Crystal 1, relaxation calorimetry | 23.28 ± 0.95
57.71 K, Crystal 1, relaxation calorimetry | 23.69 ± 0.96
58.79 K, Crystal 1, relaxation calorimetry | 24.17 ± 0.98
59.89 K, Crystal 1, relaxation calorimetry | 24.67 ± 1
60 K, Crystal 1, combination of DSC and relaxation calorimetry | 24.71 ± 1
60.97 K, Crystal 1, relaxation calorimetry | 25.19 ± 1
62.06 K, Crystal 1, relaxation calorimetry | 25.78 ± 1.1
63.15 K, Crystal 1, relaxation calorimetry | 26.36 ± 1.1
64.24 K, Crystal 1, relaxation calorimetry | 26.97 ± 1.1
65 K, Crystal 1, combination of DSC and relaxation calorimetry | 27.41 ± 1.1
65.33 K, Crystal 1, relaxation calorimetry | 27.59 ± 1.1

Reference: the NIST ThermoML archive (doi:10.1016/j.jct.2015.01.007)
